Data: article PMC12441834, “Highly Potent and Subtype-Selective Sperm-Specific Potassium Channel SLO3 Inhibitors Display High Tissue Exposure in the Murine Female Reproductive Tract” (ACS Pharmacology & Translational Science, 2025)
Values joined by “and” are separate entries in the source; they are usually repeats but may differ in a detail not shown here. Equal values may be shown once.

How the values were obtained:
[1] = biological target: Nicotinic Acetylcholine α3β4 (Homo sapiens, UniProt P30926+P32297); assay: LeadProfilingScreen radioligand binding
Melatonin MT1 = Melatonin MT1 (Homo sapiens, UniProt P48039); assay: LeadProfilingScreen radioligand binding
[2] = biological target: Serotonin (5-Hydroxytryptamine) 5-HT1A (Homo sapiens, UniProt P08908); assay: LeadProfilingScreen radioligand binding
mouse SLO3 = biological target: T1, mouse SLO3 (Mus musculus, UniProt O54982); assay: Whole-cell recording, mouse SLO3-γ2 expressed in HEK293 cells; assay type: cell-based; settings: for IC50: HEK293 cells transfected with murine SLO3-γ2, read-out: mSLO3 IC50; for Hill coefficient: mouse SLO3-γ2 in HEK293 cells
T1 construct: expressed in transfected cells; host or cells: HEK293 (transient, Lipofectamine 3000, with pmaxGFP as marker)
T1 sequence (O54982 1-1121): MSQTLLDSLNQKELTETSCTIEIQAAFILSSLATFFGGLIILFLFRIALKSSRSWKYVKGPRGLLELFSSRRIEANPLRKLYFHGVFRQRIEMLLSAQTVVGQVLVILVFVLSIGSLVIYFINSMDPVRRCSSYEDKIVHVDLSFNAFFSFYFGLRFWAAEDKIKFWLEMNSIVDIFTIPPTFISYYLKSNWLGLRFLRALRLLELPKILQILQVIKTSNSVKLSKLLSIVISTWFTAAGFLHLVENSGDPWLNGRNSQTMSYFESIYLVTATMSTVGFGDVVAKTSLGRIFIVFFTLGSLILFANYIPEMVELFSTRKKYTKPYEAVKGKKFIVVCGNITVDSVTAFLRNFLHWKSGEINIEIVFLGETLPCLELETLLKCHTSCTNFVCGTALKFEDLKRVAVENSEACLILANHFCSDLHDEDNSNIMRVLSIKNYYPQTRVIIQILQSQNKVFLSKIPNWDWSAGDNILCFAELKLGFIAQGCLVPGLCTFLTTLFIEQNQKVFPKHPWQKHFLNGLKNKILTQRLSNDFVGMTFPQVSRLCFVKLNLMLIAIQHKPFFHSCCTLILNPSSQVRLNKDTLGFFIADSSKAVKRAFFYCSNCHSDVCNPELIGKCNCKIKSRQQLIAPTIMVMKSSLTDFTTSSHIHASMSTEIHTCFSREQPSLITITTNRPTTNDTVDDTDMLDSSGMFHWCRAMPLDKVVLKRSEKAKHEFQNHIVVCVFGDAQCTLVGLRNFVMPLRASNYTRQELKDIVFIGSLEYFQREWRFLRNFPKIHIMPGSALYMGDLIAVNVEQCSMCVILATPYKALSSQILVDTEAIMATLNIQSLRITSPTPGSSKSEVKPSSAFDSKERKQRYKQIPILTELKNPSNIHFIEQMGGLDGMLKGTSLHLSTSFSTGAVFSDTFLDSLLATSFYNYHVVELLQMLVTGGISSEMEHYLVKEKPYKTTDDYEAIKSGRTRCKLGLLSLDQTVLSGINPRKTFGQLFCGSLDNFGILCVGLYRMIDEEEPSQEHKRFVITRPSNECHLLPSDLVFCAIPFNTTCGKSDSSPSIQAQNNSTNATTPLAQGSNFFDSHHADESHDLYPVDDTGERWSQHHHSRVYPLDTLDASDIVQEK
T1 sequence (Q5M8M9 24-314 partner): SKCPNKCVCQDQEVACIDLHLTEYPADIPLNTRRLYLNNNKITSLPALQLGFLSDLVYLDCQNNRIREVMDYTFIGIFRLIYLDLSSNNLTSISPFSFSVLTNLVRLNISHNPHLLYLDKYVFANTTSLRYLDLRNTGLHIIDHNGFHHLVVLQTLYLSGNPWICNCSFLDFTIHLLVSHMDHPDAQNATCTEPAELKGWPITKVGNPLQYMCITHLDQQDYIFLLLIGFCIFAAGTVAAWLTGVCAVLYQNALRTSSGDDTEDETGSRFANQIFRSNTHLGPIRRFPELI
Experimental: HEK293 cells were plated at a density of ∼400,000 cells per 40 mm dish the day before transfection. Lipofectamine 3000 transfection reagent (catalog #L3000015; Thermo Fisher Scientific) was used to transfect HEK293 cells following manufacturer’s instructions. Per 40 mm dish, 2.25 μg of mouse SLO3 and its auxiliary subunit γ2 cDNAs (1:1) were added to cell layers that were 70–90% confluent. As a marker for transfection, cells were cotransfected with pmaxGFP, a CMV plasmid expressing green fluorescent protein (Amaxa Biosystems) at 0.2 μg per dish. After transfection, the cells were incubated at 37 °C with 5% CO2 for 2–4 d until recording.
Voltage-clamp recordings were performed using an Axopatch 200B amplifier (Molecular Devices). Recordings were filtered at 5 kHz with the internal filter of the amplifier and digitized at 50 kHz using a Digidata 1550B digitizer (Molecular Devices). Recording pipettes were pulled from borosilicate glass with tip resistances of 3–8 MΩ after filling with pipette solution containing (in mM): 140 KMES, 1 EGTA, 10 HEPES, pH 7.4 with KOH. Bath solutions contained (in mM): 135 NaMES, 5 KMES, 2 MgCl2, and 10 HEPES, pH 7.4 with NaOH. Experiments were performed at room temperature (∼22 °C). Whole-cell currents were evoked from a holding potential of −60 mV in steps from −80 to +100 mV in 10 mV increments. Test compounds were prepared daily from a 10 mM stock solution (in DMSO).
Data were analyzed with a pClamp 10.6 (Molecular Devices). VU6047606 and VU6032735 inhibition dose–response relationships were fit by the Hill equation in OriginPro 7.5 (OriginLab Corporation): R=1/1+(C/IC50)^n+Ioff , in which R is fractional unblock, C is compound concentration, IC50 is the half inhibition concentration, n is the Hill coefficient, and I off is an offset item for leak current. Error bars in the figures represent the SDs. Each data point is averaged from at least 5 measurements. Curve-fitting results are reported as the fitted values with standard error, which was estimated by OriginPro according to the Error Propagation formula.

Adrenergic β1 = Adrenergic β1 (Homo sapiens, UniProt P08588); assay: LeadProfilingScreen radioligand binding
[3] = biological target: Platelet Activating Factor (PAF) (Homo sapiens, UniProt P25105); assay: LeadProfilingScreen radioligand binding
Transporter, GABA = Transporter, GABA (Rattus norvegicus, UniProt P23978); assay: LeadProfilingScreen radioligand binding
[4] = Multispecies hepatocyte MetID; assay type: in vitro ADME, mouse; settings: 4 h incubation with hepatocytes, 10 μM
Neuropeptide Y Y2 = Neuropeptide Y Y2 (Homo sapiens, UniProt P49146); assay: LeadProfilingScreen radioligand binding
Cannabinoid CB1 = Cannabinoid CB1 (Homo sapiens, UniProt P21554); assay: LeadProfilingScreen radioligand binding
CYP2C9 = CYP2C9 (Homo sapiens, UniProt P11712); assay: CYP450 inhibition; assay type: in vitro ADME; settings: read-out: CYP450 Inhibition, 2C9
Sequence of CYP2C9 (P11712 whole entry, species assumed): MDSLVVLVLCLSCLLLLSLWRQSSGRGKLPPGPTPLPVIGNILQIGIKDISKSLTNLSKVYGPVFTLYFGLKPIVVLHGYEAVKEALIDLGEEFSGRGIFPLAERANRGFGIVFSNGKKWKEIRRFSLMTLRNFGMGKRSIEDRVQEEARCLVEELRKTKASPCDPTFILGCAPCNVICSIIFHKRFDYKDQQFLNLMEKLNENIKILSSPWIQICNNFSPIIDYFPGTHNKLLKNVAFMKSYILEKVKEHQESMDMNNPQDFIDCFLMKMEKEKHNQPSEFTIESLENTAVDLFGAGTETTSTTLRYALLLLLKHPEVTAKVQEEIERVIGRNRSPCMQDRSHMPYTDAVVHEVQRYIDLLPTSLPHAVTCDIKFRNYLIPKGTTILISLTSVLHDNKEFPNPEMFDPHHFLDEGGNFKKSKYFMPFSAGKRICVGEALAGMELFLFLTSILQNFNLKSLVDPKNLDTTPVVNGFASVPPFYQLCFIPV

Sequence of Nicotinic Acetylcholine α3β4 (P32297 32-505): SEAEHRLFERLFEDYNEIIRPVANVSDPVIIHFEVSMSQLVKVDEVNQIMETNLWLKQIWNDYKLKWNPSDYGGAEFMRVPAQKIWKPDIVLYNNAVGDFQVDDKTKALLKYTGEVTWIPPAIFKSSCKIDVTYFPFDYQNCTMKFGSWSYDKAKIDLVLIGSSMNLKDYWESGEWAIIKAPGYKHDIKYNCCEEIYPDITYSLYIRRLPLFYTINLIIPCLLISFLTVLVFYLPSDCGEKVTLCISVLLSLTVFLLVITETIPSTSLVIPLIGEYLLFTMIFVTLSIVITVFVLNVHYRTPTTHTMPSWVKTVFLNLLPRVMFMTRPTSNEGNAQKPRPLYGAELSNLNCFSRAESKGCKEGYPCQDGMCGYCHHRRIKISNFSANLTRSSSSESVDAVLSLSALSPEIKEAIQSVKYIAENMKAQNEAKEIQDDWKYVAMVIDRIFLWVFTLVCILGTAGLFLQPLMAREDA
Sequence of Nicotinic Acetylcholine α3β4 (P30926 22-498): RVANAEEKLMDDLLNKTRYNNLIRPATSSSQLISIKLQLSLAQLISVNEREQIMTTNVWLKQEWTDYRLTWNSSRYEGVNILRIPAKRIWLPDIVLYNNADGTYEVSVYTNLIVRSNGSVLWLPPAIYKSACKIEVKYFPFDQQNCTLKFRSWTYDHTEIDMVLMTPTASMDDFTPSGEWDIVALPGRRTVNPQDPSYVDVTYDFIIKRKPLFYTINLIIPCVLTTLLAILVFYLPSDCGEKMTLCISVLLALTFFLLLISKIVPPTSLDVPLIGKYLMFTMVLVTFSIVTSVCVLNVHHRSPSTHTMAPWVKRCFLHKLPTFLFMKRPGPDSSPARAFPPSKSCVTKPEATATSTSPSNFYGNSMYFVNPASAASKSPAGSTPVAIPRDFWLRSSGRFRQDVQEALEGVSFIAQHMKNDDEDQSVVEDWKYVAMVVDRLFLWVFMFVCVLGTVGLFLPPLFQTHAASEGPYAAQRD
Sequence of Serotonin (5-Hydroxytryptamine) 5-HT1A (P08908 whole entry): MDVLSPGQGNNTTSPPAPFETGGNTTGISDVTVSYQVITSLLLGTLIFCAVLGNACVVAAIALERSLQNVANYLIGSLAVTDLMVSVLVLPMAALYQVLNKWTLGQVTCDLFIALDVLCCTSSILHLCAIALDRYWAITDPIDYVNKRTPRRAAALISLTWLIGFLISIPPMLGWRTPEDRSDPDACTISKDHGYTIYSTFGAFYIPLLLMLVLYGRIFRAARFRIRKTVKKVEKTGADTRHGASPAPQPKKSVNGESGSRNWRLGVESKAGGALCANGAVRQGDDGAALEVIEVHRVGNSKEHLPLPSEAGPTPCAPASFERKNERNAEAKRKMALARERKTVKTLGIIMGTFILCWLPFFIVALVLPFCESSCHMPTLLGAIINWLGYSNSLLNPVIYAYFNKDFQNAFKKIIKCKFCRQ
Sequence of Platelet Activating Factor (PAF) (P25105 whole entry): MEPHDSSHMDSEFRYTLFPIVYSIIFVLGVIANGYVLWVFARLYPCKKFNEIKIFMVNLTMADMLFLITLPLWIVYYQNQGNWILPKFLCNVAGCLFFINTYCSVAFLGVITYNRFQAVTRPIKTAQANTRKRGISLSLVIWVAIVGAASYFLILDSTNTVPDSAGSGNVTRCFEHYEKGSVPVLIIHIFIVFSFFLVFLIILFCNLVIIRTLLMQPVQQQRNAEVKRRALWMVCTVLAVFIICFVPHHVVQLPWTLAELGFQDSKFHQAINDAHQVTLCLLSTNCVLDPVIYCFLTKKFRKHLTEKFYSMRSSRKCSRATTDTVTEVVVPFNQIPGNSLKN
Sequence of Adrenergic β1 (P08588 whole entry): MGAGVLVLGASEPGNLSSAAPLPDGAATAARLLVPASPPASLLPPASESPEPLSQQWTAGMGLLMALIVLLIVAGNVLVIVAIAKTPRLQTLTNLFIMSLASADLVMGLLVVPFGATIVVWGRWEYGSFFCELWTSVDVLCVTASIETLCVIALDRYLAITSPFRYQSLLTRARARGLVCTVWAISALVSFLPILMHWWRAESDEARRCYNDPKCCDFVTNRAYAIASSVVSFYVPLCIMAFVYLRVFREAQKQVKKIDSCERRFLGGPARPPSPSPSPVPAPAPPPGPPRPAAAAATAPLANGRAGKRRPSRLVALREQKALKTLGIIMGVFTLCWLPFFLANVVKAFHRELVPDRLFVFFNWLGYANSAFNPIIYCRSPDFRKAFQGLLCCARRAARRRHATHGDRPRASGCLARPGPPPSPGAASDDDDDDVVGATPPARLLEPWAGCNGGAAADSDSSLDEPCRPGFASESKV
Sequence of Cannabinoid CB1 (P21554 whole entry): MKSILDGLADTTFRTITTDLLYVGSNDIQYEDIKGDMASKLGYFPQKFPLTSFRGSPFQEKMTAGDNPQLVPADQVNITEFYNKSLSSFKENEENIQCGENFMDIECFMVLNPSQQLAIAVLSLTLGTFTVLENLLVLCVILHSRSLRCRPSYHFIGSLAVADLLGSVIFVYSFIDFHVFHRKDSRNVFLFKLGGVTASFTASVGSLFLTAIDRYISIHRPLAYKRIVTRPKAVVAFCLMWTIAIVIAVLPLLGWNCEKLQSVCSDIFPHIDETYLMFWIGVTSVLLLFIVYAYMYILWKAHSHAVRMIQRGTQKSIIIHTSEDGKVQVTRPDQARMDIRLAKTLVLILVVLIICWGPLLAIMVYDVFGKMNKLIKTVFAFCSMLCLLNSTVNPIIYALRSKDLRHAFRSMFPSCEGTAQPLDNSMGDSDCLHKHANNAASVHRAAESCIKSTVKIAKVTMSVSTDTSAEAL
Sequence of Neuropeptide Y Y2 (P49146 whole entry): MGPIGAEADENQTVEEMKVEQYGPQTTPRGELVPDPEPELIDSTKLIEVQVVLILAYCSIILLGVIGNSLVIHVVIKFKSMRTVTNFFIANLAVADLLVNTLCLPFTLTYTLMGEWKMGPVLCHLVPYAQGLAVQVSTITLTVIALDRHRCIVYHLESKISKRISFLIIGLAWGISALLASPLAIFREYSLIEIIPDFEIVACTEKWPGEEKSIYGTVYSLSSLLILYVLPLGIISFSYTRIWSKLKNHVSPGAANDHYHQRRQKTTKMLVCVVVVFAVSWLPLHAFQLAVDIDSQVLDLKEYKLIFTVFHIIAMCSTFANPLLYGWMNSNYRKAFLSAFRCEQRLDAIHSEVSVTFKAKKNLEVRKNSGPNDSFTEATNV
Sequence of Melatonin MT1 (P48039 whole entry): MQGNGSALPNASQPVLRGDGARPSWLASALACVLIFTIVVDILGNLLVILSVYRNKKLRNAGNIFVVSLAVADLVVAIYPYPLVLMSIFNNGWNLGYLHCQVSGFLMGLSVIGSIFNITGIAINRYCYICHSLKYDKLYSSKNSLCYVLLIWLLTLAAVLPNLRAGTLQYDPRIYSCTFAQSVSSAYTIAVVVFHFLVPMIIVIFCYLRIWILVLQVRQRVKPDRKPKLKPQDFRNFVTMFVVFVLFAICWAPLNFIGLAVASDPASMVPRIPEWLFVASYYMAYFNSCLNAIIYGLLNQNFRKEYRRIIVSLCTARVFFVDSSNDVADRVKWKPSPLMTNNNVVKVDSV

Row | Structure (SMILES) | inhibition at 10 µM [1] [%] | inhibition at 10 µM (Melatonin MT1) [%] | inhibition at 10 µM [2] [%] | IC50 (mouse SLO3) [nM] | fold more potent than VU6047606 on mouse SLO3 (mouse SLO3; HEK293 cells, mSLO3-γ2) [fold] | Hill coefficient (mouse SLO3) | inhibition at 10 µM (Adrenergic β1) [%] | inhibition at 10 µM [3] [%] | inhibition at 10 µM (Transporter, GABA) [%] | % of Parent Related Material, Mouse [4] | inhibition at 10 µM (Neuropeptide Y Y2) [%] | inhibition at 10 µM (Cannabinoid CB1) [%] | IC50 (CYP2C9) [nM] | fold less potent on murine SLO3 than on human SLO3 (mouse SLO3; mouse versus human SLO3) [fold]
1 | O=C(c1ccc(OCc2ccc(OC(F)(F)F)cc2)cc1)N1CCN(c2ccc(C(F)(F)F)cn2)CC1 [VU6032735] | -6 | 8 | -1 | 730 | ~1.6 | 1.03 ± 0.02 | 8 | -2 | -4 | > 98% | 3 | 32 | > 30000 | –
2 | Cc1cc(Cl)cc2sc(O[C@H]3CCN(C(=O)CCCS(=O)(=O)c4cccc(Br)c4)C[C@H]3F)nc12 [VU6047606] | -7 | 19 | -2 | 1150 | – | 0.83 ± 0.19 | 11 | 8 | 4 | 84.99% and > 82% | 10 | 27 | > 30000 | ~7
